Consider 3 compounds from patent US10583135B2, “Compositions for treating CMT and related disorders” (Pharnext, priority 2009, dated 2020).

The assay relates to Myelin Basic Protein (MBP) expression. In words: MBP expression in PMP22 TG sensory neuron/Schwann cell co-cultures (in vitro model of CMT1A). Format: cell-based, rat. The conditions noted are these: day 10 (=17 days of culture), doses 1 and 6, in presence of ascorbic acid, compared to control. The method, then:
A model of co-culture was used as an in vitro model of CMT1A. This model of myelination consists in co-culturing sensory neurons and Schwann cells from male PMP22 Transgenic (TG) dissociated Dorsal Root Ganglia (DRG).
The aim of this study is to assess the effect of 3 test compounds (+/− baclofen, naltrexone and sorbitol) and Mix7 (a mixture of these 3 drugs) on myelination process. The effect of the 3 test compounds, and their mixture on myelination, are assessed by evaluating Myelin Basic Protein (MBP) expression in presence of ascorbic acid.
Each embryo is dispatched on numerating petri dish (35 mm of diameter). The head of embryo is cut, placed on 1.5 ml tube DNAase free; the ADN is extracted with the Extract-N-Amp Tissue Kit (Sigma Aldrich). The genotyping (Male (M) and female (F), wild type and PMP22 transgenic) is performed with the kit Fast SYBR Green Master Mix (Applied Biosystem). This genotyping is performed in parallel of the dissection of dorsal root ganglia (DRG), so that at the end of the dissection, only one type of culture (DRG from transgenic male) is done. DRG of each embryo is collected, placed in ice-cold medium of Leibovitz (L15, Invitrogen). At the end of the dissection, DRG of TGM are pooled and dissociated by trypsinization (trypsin EDTA, 0.05%; Invitrogen) for 20 min at 37° C. The reaction is stopped by addition of DMEM containing 10% of fetal bovine serum (FBS) in the presence of DNAase I (Roche). The suspension is triturated with a 10 ml pipette. Cells are then centrifuged at 350×g for 10 min at room temperature. […] Viable cells are counted in a Neubauer cytometer using the trypan blue exclusion test (Sigma) and seeded on the basis of 10 000 cells per well in 96 well-plates (Greiner) treated with poly-L-lysine. […]
Three separate and independent cultures of DRG (from TG embryos male rats) are done. These conditions are assessed in presence of ascorbic acid, 6 wells per condition. The solution ready to use of all test compounds are extemporaneously prepared from a stock solution, stored at −20° C. […]

SMILES strings stand for the structures.

In the case of `NCC(CC(=O)O)c1ccc(Cl)cc1` (racemic) [(RS)-baclofen], the MBP expression result is recorded as “no substantial effect”.
As for `OC[C@@H](O)[C@@H](O)[C@H](O)[C@@H](O)CO` [D-sorbitol], the MBP expression entry is “no substantial effect”.
The result for `O=C1CC[C@@]2(O)[C@H]3Cc4ccc(O)c5c4[C@@]2(CCN3CC2CC2)[C@H]1O5` [naltrexone] reads “no substantial effect”.
